Experimental data reported in US20050059658A1, “Pyridazinone” (priority 2001, published 2005).

Key:
[1] = Cytotoxicity on NHDF cells in the anti-HCMV cytopathogenicity test; assay type: cell-based; details: human, NHDF cells (normal human dermal fibroblasts), 6 days incubation, visual evaluation
Procedure: (§1) The test compounds are used as 50 millimolar (mM) solutions in dimethyl sulfoxide (DMSO). The reference compounds used are ganciclovir, foscarnet and cidofovir. In each case 2 μl of the 50, 5, 0.5 and 0.05 mM DMSO stock solutions are added to in each case 98 μl of cell culture medium in row […] in duplicate, and 1:2 dilutions with in each case 50 μl of medium are then made up to row 11 of the 96-well plate. The wells in rows 1 and 12 each contain 50 μl of medium. In each case 150 μl of a suspension of 1×10^4 cells (NHDF=normal human dermal fibroblasts) (row 1 =cell control) and, for rows 2-12, a mixture of HCMV-infected and non-infected NHDF cells (M.O.I.=0.001-0.002), i.e. 1-2 infected cells per 1000 non-infected cells, are then pipetted into the wells. Row 12 (without substance) serves as virus control. The final test concentrations are 250-0.0005 μM. The plates are incubated at 37° C./5% CO2 for 6 days, i.e. until all cells in the virus controls are infected (100% cytopathogenic effect [CPE]). The wells are then fixed by adding a mixture of formalin and Giemsa's dye and stained (30 minutes), washed with doubly distilled water and dried in a drying cabinet at 50° C. The plates are then examined visually using an overhead microscope (Plaque multiplier from Technomara). Using the test plates, the following data can be determined: • CC50 (NHDF)=substance concentration in μM where, compared to the untreated cell control, no cytostatic effects on the cells are evident; • EC50 (HCMV)=substance concentration in μM where the CPE (cytopathic effect) is inhibited by 50% compared to the untreated virus control; • SI (selectivity index)=CC50 (NHDF)/EC50 (HCMV). In vivo Action: HCMV Xenograft Gelfoam® Model: Animals: […]

[2] = system: human cytomegalovirus (HCMV); experiment: Anti-HCMV (anti-human cytomegalovirus) cytopathogenicity test; assay type: cell-based; details: for EC50: Human betaherpesvirus 5, 144 h, HCMV-infected NHDF cells, M.O.I. 0.001-0.002, 6 days, 50% inhibition of CPE; for SI HCMV: selectivity index = CC50 (NHDF)/EC50 (HCMV)
Procedure: as §1

[3] = system: Human cytomegalovirus (HCMV), DavisSmith strain; experiment: HCMV xenograft Gelfoam model; assay type: in vivo, immunodeficient mice; details: perorally three times a day for 8 days, SCID mice, HCMV-infected NHDF cells in Gelfoam sponge
Text: Female immunodeficient mice (16-18 g), Fox Chase SCID or Fox Chase SCID-NOD or SCID-beige, 3-4 weeks old, are obtained from commercial breeders (Bomholtgaard, Jackson). The animals are kept under sterile conditions (including litter and feed) in isolation units.
Human cytomegalovirus (HCMV), DavisSmith strain, is cultivated in vitro on embryonal human dermal fibroblasts (NHDF cells). Following infection of the NHDF cells with a multiplicity of infection (M.O.I.) of 0.01, the virus-infected cells are harvested after 5-7 days and, in the presence of minimal essential medium (MEM), 10% fetal calf serum (FCS) with 10% DMSO, stored at −40° C. Following serial dilution of the virus-infected cells in steps of ten, the titer is determined on 24-well plates of confluent NHDF cells after vital stain with Neutral Red.
Collagen sponges (Gelfoam®; from Peasel & Lorey, order No. 40734; K. T. Chong et al., Abstracts of 39th Interscience Conference on Antimicrobial Agents and Chemotherapy, 1999, p. 439) of a size of 1×1×1 cm are initially wetted with phosphate-buffered saline (PBS), the enclosed air bubbles are removed by degassing and the sponges are then stored in MEM+10% FCS. […] What is determined is the number of infectious virus particles after substance treatment compared to the placebo-treated control group.

| EC50 [2] [µM] | melting point [°C] | Compound | CC50 at 6 days [1] [µM] | SI HCMV [2] | Murine xenograft model ED50 t.i.d. [3] [mg]kg] |
| --- | --- | --- | --- | --- | --- |
| 0.96 | 213 | CC1(C)CC(=O)NN=C1c1cccc(NC(=O)Nc2ccc(F)cc2F)c1 [Example 1, N-(2,4-Difluorophenyl)-N′-[3-(4,4-dimethyl-6-oxo-1,4,5,6-tetrahydro-3-pyridazinyl)-phenyl]urea] | 125 | 130 | 18 |
| 0.07 |  | CC1(C)CC(=O)NN=C1c1cccc(NC(=O)Nc2ccc(F)c(Cl)c2)c1 [Example 2, N-(3-Chloro-4-fluorophenyl)-N′-[3-(4,4-dimethyl-6-oxo-1,4,5,6-tetrahydro-3-pyridazinyl)phenyl]urea] | 23 | 329 |  |
| 0.13 | 207 | CC1(C)CC(=O)NN=C1c1cccc(NC(=O)Nc2cccc(Br)c2)c1 [Example 3, N-(3-Bromophenyl)-N′-[3-(4,4-dimethyl-6-oxo-1,4,5,6-tetrahydro-3-pyridazinyl)-phenyl]urea] | 24 | 185 |  |
| 0.15 | 232 | Cc1cc(Cl)ccc1NC(=O)Nc1cccc(C2=NNC(=O)CC2(C)C)c1 [Example 4, N-(4-Chloro-2-methylphenyl)-N′-[3-(4,4-dimethyl-6-oxo-1,4,5,6-tetrahydro-3-pyridazinyl)phenyl]urea] | > 23 | >153 | 8 |
| 6.1 |  | CC1(C)CC(c2ccccc2NC(=O)Nc2ccc(F)cc2F)=NNC1=O [Example 5, N-(2,4-Difluorophenyl)-N′-[2-(5,5-dimethyl-6-oxo-1,4,5,6-tetrahydro-3-pyridazinyl)-phenyl]urea] | 125 | 21 |  |
|  | 200 | CC1(C)CC(c2cccc(NC(=O)Nc3ccc(F)c(F)c3)c2)=NNC1=O [Example 6, N-(3,4-Difluorophenyl)-N′-[3-(5,5-dimethyl-6-oxo-1,4,5,6-tetrahydro-3-pyridazinyl)-phenyl]urea] |  |  |  |
